# Data: patent US6555692B1, “Preparation and use of bifunctional molecules having DNA sequence binding specificity” (California Institute of Technology, priority 1996, dated 2003)
# What was measured:
# 5′-AACCAAGTCTTGGTA-3′ = assay: Association constants, recognition of 15 base pairs; conditions: for Specificity Center mismatch: match vs 5′-AACCAACTGTTGGTA-3′; for Specificity Edge mismatch: match vs 5′-AACCAAGTCTTGCGA-3′; for Ka 5′-AACCAAGTCTTGGTA-3′: Table 7, C3-OH polyamides, match site; for Specificity 5′-AACCAACTGTTGGTA-3′: Table 7, center mismatch; for Specificity 5′-AACCAAGTCTTGCGA-3′: Table 7, edge mismatch
# 5′-gcggtTGTCAacccg-3′ = assay: Recognition of 9-11 base pairs (Table 9); format: binding; conditions: 22° C. and pH 7.0
# From the text: (§1) Table 9 illustrates recognition of recognition of 9-11 base pairs by ImPyPy-X-ImPyPy-β-Dp.
# 5′-TGTCAAGACA-3′ = assay: Recognition of 9-11 base pairs (Table 9); format: binding; conditions: 22° C. and pH 7.0
# From the text: as §1
# 5′-TGTCAGACA-3′ = assay: Recognition of 9-11 base pairs (Table 9); format: binding; conditions: 22° C. and pH 7.0
# From the text: as §1
# 5′-TGTCAAAGACA-3′ = assay: Recognition of 9-11 base pairs (Table 9); format: binding; conditions: 22° C. and pH 7.0
# From the text: as §1
# [1] = Table 6, ImImPy-γ-PyPyPy-X-ImPyPy-β-Dp
# [2] = Table 5, ImPyPy-X-ImImPy-γ-PyPyPy-β-Dp, 24° C., pH 7.0
smiles,measurement,setting,value
"CN(C)CCCNC(=O)CCNC(=O)c1cc(NC(=O)c2cc(NC(=O)c3nc(NC(=O)CCCCNC(=O)c4cc(NC(=O)c5cc(NC(=O)c6cc(NC(=O)CCCNC(=O)c7cc(NC(=O)c8nc(NC(=O)c9nccn9C)cn8C)cn7C)cn6C)cn5C)cn4C)cn3C)cn2C)cn1C [ImImPy-γ-PyPyPy-C5-ImPyPy-β-Dp, ImImPy-γ-PyPyPy-X-ImPyPy-β-Dp]",Ka Match,5′-AACCAAGTCTTGGTA-3′; [1],1e+09 M⁻¹
same,Specificity Center mismatch,5′-AACCAAGTCTTGGTA-3′; Table 6,2
same,Specificity Edge mismatch,5′-AACCAAGTCTTGGTA-3′; Table 6,2
"CN(C)CCCNC(=O)CCNC(=O)c1cc(NC(=O)c2cc(NC(=O)c3nc(NC(=O)CCCCCNC(=O)c4cc(NC(=O)c5cc(NC(=O)c6cc(NC(=O)CCCNC(=O)c7cc(NC(=O)c8nc(NC(=O)c9nccn9C)cn8C)cn7C)cn6C)cn5C)cn4C)cn3C)cn2C)cn1C [ImImPy-γ-PyPyPy-C6-ImPyPy-β-Dp, ImImPy-γ-PyPyPy-X-ImPyPy-β-Dp]",Ka Match,5′-AACCAAGTCTTGGTA-3′; [1],2e+08 M⁻¹
same,Specificity Center mismatch,5′-AACCAAGTCTTGGTA-3′; Table 6,1
same,Specificity Edge mismatch,5′-AACCAAGTCTTGGTA-3′; Table 6,2
"CN(C)CCCNC(=O)CCNC(=O)c1cc(NC(=O)c2cc(NC(=O)c3nc(NC(=O)CCCCCCNC(=O)c4cc(NC(=O)c5cc(NC(=O)c6cc(NC(=O)CCCNC(=O)c7cc(NC(=O)c8nc(NC(=O)c9nccn9C)cn8C)cn7C)cn6C)cn5C)cn4C)cn3C)cn2C)cn1C [ImImPy-γ-PyPyPy-C7-ImPyPy-β-Dp, ImImPy-γ-PyPyPy-X-ImPyPy-β-Dp]",Ka Match,5′-AACCAAGTCTTGGTA-3′; [1],1e+09 M⁻¹
same,Specificity Center mismatch,5′-AACCAAGTCTTGGTA-3′; Table 6,1
same,Specificity Edge mismatch,5′-AACCAAGTCTTGGTA-3′; Table 6,1
"CN(C)CCCNC(=O)CCNC(=O)c1cc(NC(=O)c2cc(NC(=O)c3nc(NC(=O)CCNC(=O)CCNC(=O)c4cc(NC(=O)c5cc(NC(=O)c6cc(NC(=O)CCCNC(=O)c7cc(NC(=O)c8nc(NC(=O)c9nccn9C)cn8C)cn7C)cn6C)cn5C)cn4C)cn3C)cn2C)cn1C [ImImPy-γ-PyPyPy-β-β-ImPyPy-β-Dp, ImImPy-γ-PyPyPy-X-ImPyPy-β-Dp]",Ka Match,5′-AACCAAGTCTTGGTA-3′; [1],1e+10 M⁻¹
same,Specificity Center mismatch,5′-AACCAAGTCTTGGTA-3′; Table 6,1
same,Specificity Edge mismatch,5′-AACCAAGTCTTGGTA-3′; Table 6,1
Cn1cc(NC(=O)c2cc(NC(=O)c3cc(NC(=O)CCCNC(=O)c4cc(NC(=O)c5nc(NC(=O)c6nc(NC(=O)CCCCNC(=O)c7cc(NC(=O)c8cc(NC(=O)c9nccn9C)cn8C)cn7C)cn6C)cn5C)cn4C)cn3C)cn2C)cc1C(=O)NCCCO [ImPyPy-C5-ImImPy-γ-PyPyPy-C3—OH],Ka 5′-AACCAAGTCTTGGTA-3′,5′-AACCAAGTCTTGGTA-3′,3 × 10^7
same,Specificity 5′-AACCAACTGTTGGTA-3′,5′-AACCAAGTCTTGGTA-3′,>3
same,Specificity 5′-AACCAAGTCTTGCGA-3′,5′-AACCAAGTCTTGGTA-3′,>3
"CN(C)CCCNC(=O)CCNC(=O)c1cc(NC(=O)c2cc(NC(=O)c3cc(NC(=O)CCCNC(=O)c4cc(NC(=O)c5nc(NC(=O)c6nc(NC(=O)CCCCNC(=O)c7cc(NC(=O)c8cc(NC(=O)c9nccn9C)cn8C)cn7C)cn6C)cn5C)cn4C)cn3C)cn2C)cn1C [ImPyPy-C5-ImImPy-γ-PyPyPy-β-Dp, ImPyPy-X-ImImPy-γ-PyPyPy-β-Dp]",Ka Match,5′-AACCAAGTCTTGGTA-3′; [2],4e+08 M⁻¹
same,Specificity Center mismatch,5′-AACCAAGTCTTGGTA-3′; Table 5,11
same,Specificity Edge mismatch,5′-AACCAAGTCTTGGTA-3′; Table 5,19
CN(C)CCCNC(=O)CCNC(=O)c1cc(NC(=O)c2cc(NC(=O)c3nc(NC(=O)CCCCNC(=O)c4cc(NC(=O)c5cc(NC(=O)c6nccn6C)cn5C)cn4C)cn3C)cn2C)cn1C [ImPyPy-C5-ImPyPy-β-Dp],5′-gcggtTGTCAacccg-3′,5′-gcggtTGTCAacccg-3′,1 × 10^9
same,5′-TGTCAAGACA-3′,5′-TGTCAAGACA-3′,1 × 10^9
same,5′-TGTCAGACA-3′,5′-TGTCAGACA-3′,2 × 10^8
same,5′-TGTCAAAGACA-3′,5′-TGTCAAAGACA-3′,1 × 10^9
Cn1cc(NC(=O)c2cc(NC(=O)c3cc(NC(=O)CCCNC(=O)c4cc(NC(=O)c5nc(NC(=O)c6nc(NC(=O)CCCCCNC(=O)c7cc(NC(=O)c8cc(NC(=O)c9nccn9C)cn8C)cn7C)cn6C)cn5C)cn4C)cn3C)cn2C)cc1C(=O)NCCCO [ImPyPy-C6-ImImPy-γ-PyPyPy-C3—OH],Ka 5′-AACCAAGTCTTGGTA-3′,5′-AACCAAGTCTTGGTA-3′,3 × 10^7
same,Specificity 5′-AACCAACTGTTGGTA-3′,5′-AACCAAGTCTTGGTA-3′,2
same,Specificity 5′-AACCAAGTCTTGCGA-3′,5′-AACCAAGTCTTGGTA-3′,2
"CN(C)CCCNC(=O)CCNC(=O)c1cc(NC(=O)c2cc(NC(=O)c3cc(NC(=O)CCCNC(=O)c4cc(NC(=O)c5nc(NC(=O)c6nc(NC(=O)CCCCCNC(=O)c7cc(NC(=O)c8cc(NC(=O)c9nccn9C)cn8C)cn7C)cn6C)cn5C)cn4C)cn3C)cn2C)cn1C [ImPyPy-C6-ImImPy-γ-PyPyPy-β-Dp, ImPyPy-X-ImImPy-γ-PyPyPy-β-Dp]",Ka Match,5′-AACCAAGTCTTGGTA-3′; [2],2e+08 M⁻¹
same,Specificity Center mismatch,5′-AACCAAGTCTTGGTA-3′; Table 5,12
same,Specificity Edge mismatch,5′-AACCAAGTCTTGGTA-3′; Table 5,15
CN(C)CCCNC(=O)CCNC(=O)c1cc(NC(=O)c2cc(NC(=O)c3nc(NC(=O)CCCCCNC(=O)c4cc(NC(=O)c5cc(NC(=O)c6nccn6C)cn5C)cn4C)cn3C)cn2C)cn1C [ImPyPy-C6-ImPyPy-β-Dp],5′-gcggtTGTCAacccg-3′,5′-gcggtTGTCAacccg-3′,5 × 10^7
same,5′-TGTCAAGACA-3′,5′-TGTCAAGACA-3′,2 × 10^8
same,5′-TGTCAGACA-3′,5′-TGTCAGACA-3′,1 × 10^8
same,5′-TGTCAAAGACA-3′,5′-TGTCAAAGACA-3′,5 × 10^7
"CN(C)CCCNC(=O)CCNC(=O)c1cc(NC(=O)c2cc(NC(=O)c3cc(NC(=O)CCCNC(=O)c4cc(NC(=O)c5nc(NC(=O)c6nc(NC(=O)CCCCCCNC(=O)c7cc(NC(=O)c8cc(NC(=O)c9nccn9C)cn8C)cn7C)cn6C)cn5C)cn4C)cn3C)cn2C)cn1C [ImPyPy-C7-ImImPy-γ-PyPyPy-β-Dp, ImPyPy-X-ImImPy-γ-PyPyPy-β-Dp]",Ka Match,5′-AACCAAGTCTTGGTA-3′; [2],2e+08 M⁻¹
same,Specificity Center mismatch,5′-AACCAAGTCTTGGTA-3′; Table 5,2
same,Specificity Edge mismatch,5′-AACCAAGTCTTGGTA-3′; Table 5,2
